Data: ChEMBL document CHEMBL5154779, “Exploration of novel phthalazinone derivatives as potential efflux transporter inhibitors for reversing multidrug resistance and improving the oral absorption of paclitaxel” (Eur J Med Chem, 2022)
Where a name gives a salt, the structure may show the parent alone. Activity calls are given as the source filed them. The rule behind the calls is not given here.

Legend:
[1] = Reversal of BCRP-mediated multidrug resistance in dog MDCK-II-BCRP cells in presence of mitoxantrone after 48 hrs by MTT assay; format: cell-based; conditions: Canis lupus familiaris
MDCK = test: Cytotoxicity against dog MDCK cells after 48 hrs by MTT assay; format: functional, cell-based; conditions: Canis lupus familiaris
Caco-2 [2] = test: Cytotoxicity against human Caco-2 cells assessed as reduction in cell viability at 50 uM after 48 hrs by MTT assay; format: toxicity, cell-based; conditions: caco-2, 48 h
K562/A02 = test: Cytotoxicity against human K562/A02 cells after 48 hrs by MTT assay; format: functional, cell-based; conditions: K562/A02, 48 h
[3] = Cytotoxicity against dog MDCK-II-BCRP cells after 48 hrs by MTT assay; format: functional, cell-based; conditions: Canis lupus familiaris
[4] = target: T1, ATP-dependent translocase ABCB1 (Homo sapiens, UniProt P08183); test: Inhibition of P-gp in human K562/A02 cells assessed as rescue of intracellular Rhodamine 123 accumulation at 5 uM incubated for 5 to 120 mins and measured by flow cytometry analysis; format: cell-based; conditions: k562/a02, 5 µM, time 5-120 min
T1 sequence (P08183 whole entry): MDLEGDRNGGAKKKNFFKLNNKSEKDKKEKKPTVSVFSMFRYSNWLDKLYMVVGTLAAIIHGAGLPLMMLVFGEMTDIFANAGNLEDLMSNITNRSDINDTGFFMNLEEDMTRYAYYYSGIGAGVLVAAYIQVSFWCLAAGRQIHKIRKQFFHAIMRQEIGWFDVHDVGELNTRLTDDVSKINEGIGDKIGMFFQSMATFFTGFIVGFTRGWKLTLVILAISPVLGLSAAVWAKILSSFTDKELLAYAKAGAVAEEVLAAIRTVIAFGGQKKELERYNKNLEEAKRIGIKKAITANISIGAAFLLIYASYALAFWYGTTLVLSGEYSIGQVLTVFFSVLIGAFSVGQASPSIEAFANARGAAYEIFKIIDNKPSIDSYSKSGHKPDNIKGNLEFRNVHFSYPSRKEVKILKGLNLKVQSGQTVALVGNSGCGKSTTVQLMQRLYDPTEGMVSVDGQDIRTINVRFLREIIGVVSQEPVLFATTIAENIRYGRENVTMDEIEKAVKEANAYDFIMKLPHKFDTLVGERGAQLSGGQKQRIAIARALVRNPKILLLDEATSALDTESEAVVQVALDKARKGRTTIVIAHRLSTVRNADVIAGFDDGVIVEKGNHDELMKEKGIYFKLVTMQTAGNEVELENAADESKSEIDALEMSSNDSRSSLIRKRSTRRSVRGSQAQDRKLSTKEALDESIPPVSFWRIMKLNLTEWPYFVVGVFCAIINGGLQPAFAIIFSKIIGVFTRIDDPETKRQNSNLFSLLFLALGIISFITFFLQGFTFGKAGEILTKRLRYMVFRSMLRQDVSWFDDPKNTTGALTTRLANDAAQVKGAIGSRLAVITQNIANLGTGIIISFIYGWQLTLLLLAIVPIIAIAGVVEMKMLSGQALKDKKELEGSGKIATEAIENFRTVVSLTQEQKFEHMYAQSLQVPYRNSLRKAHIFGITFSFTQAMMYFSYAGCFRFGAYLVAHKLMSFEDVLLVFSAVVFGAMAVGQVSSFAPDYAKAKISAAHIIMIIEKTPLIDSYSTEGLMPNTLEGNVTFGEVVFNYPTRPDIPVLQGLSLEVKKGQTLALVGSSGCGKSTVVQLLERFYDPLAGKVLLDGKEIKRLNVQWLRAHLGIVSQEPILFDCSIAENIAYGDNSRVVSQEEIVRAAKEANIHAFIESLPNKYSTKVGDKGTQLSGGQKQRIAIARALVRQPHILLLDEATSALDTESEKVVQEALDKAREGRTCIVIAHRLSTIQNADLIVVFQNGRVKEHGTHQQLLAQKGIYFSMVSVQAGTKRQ

[5] = Reversal of P-gp-mediated multidrug resistance in human K562/A02 cells assessed as potentiation of adriamycin-induced cytotoxicity at 0.04 uM by measuring adriamycin IC50 after 48 hrs by MTT assay
K562 = test: Cytotoxicity against human K562 cells after 48 hrs by MTT assay; format: functional, cell-based; conditions: K562, 48 h
[6] = target: T1, ATP-dependent translocase ABCB1; test: Inhibition of P-gp-mediated multidrug resistance in human K562/A02 cells assessed as adriamycin accumulation at 0.5 to 5 uM pretreated 1.5 hrs followed by treated with adriamycin measured after 4 hrs by flow cytometry analysis; format: cell-based; conditions: k562/a02, 1.5 h, dose 0.5-5 µM
MDCK-II-BCRP = test: Inhibition of BCRP-mediated multidrug resistance in dog MDCK-II-BCRP cells assessed as mitoxantrone accumulation at 0.1 to 5 uM pretreated 1.5 hrs followed by treated with mitoxantrone measured after 4 hrs by flow cytometry analysis; format: cell-based; conditions: Canis lupus familiaris, dose 0.1-5 µM
[7] = target: T2, Broad substrate specificity ATP-binding cassette transporter ABCG2 (Homo sapiens, UniProt Q9UNQ0); test: Inhibition of BCRP (unknown origin)
T2 sequence (Q9UNQ0 whole entry): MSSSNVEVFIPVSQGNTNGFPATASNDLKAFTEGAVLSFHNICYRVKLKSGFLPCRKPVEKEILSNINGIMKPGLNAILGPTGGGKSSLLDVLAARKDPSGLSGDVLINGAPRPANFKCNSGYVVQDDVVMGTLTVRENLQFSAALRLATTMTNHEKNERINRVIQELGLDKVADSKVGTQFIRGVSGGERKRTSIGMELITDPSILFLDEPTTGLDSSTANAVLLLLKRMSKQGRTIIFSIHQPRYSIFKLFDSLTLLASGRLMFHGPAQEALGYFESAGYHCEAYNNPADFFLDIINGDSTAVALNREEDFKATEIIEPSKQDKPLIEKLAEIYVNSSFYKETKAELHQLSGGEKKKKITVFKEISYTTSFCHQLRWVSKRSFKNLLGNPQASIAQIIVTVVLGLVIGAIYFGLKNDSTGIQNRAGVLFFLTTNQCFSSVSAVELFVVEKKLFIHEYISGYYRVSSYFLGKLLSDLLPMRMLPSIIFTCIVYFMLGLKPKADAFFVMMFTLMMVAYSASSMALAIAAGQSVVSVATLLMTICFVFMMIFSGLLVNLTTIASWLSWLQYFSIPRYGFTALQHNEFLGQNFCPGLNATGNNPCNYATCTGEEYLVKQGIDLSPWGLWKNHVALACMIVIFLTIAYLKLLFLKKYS

[8] = target: T1, ATP-dependent translocase ABCB1; test: Inhibition of P-gp (unknown origin)
A549 = test: Antiproliferative activity against human A549 cells highly expressing EGFR after 48 hrs by MTT assay; format: functional, cell-based; conditions: A549, 48 h
[9] = Apparent permeability of compound in human Caco-2 cells from basal to apical after 90 mins by LC-MS/MS analysis; format: ADME, cell-based
[10] = Oral bioavailability in male Sprague-Dawley rat at 20 mg/kg,po pretreated with 3-4-chloropheny1-N-4-2-morpholinoethylpheny1-4-oxo-3,4-dihydrophthalazine-1-carboxamide at 10 mg/kg measured by LC/MS analysis; format: ADME, organism-based; conditions: in vivo
[11] = Bioavailability in male Sprague-Dawley rat at 5 mg/kg,iv measured by LC/MS analysis; format: ADME, organism-based; conditions: in vivo
[12] = Tmax in male Sprague-Dawley rat at 20 mg/kg,po measured by LC/MS analysis; format: ADME, organism-based; conditions: in vivo
[13] = Apparent permeability of compound in human Caco-2 cells from basal to apical after 60 mins by LC-MS/MS analysis; format: ADME, cell-based
[14] = Apparent oral volume of distribution in male Sprague-Dawley rat at 20 mg/kg,po pretreated with 3-4-chloropheny1-N-4-2-morpholinoethylpheny1-4-oxo-3,4-dihydrophthalazine-1-carboxamide at 10 mg/kg measured by LC/MS analysis; format: ADME, organism-based; conditions: in vivo
[15] = Apparent permeability of compound in human Caco-2 cells from apical to basal after 120 mins by LC-MS/MS analysis; format: ADME, cell-based
[16] = AUC (0 to t) in male Sprague-Dawley rat at 20 mg/kg,po pretreated with 3-4-chloropheny1-N-4-2-morpholinoethylpheny1-4-oxo-3,4-dihydrophthalazine-1-carboxamide at 10 mg/kg measured by LC/MS analysis; format: ADME, organism-based; set-up: dose 20 mg/kg, route po; conditions: in vivo
in vivo = conditions: male, Sprague-Dawley, rat, po, 20 mg/kg
[17] = Apparent permeability of compound in human Caco-2 cells from apical to basal after 90 mins by LC-MS/MS analysis; format: ADME, cell-based
[18] = Tmax in male Sprague-Dawley rat at 20 mg/kg,po pretreated with 3-4-chloropheny1-N-4-2-morpholinoethylpheny1-4-oxo-3,4-dihydrophthalazine-1-carboxamide at 10 mg/kg measured by LC/MS analysis; format: ADME, organism-based; conditions: in vivo
[19] = Apparent permeability of compound in human Caco-2 cells from basal to apical after 30 mins by LC-MS/MS analysis; format: ADME, cell-based
[20] = Cmax in male Sprague-Dawley rat at 20 mg/kg,po measured by LC/MS analysis; format: ADME, organism-based; set-up: dose 20 mg/kg, route po; conditions: in vivo
[21] = Apparent permeability of compound in human Caco-2 cells from apical to basal after 60 mins by LC-MS/MS analysis; format: ADME, cell-based
[22] = Apparent permeability of compound in human Caco-2 cells from apical to basal after 180 mins by LC-MS/MS analysis; format: ADME, cell-based
[23] = Apparent oral clearance in male Sprague-Dawley rat at 20 mg/kg,po pretreated with 3-4-chloropheny1-N-4-2-morpholinoethylpheny1-4-oxo-3,4-dihydrophthalazine-1-carboxamide at 10 mg/kg measured by LC/MS analysis; format: ADME, organism-based; conditions: in vivo
[24] = Apparent permeability of compound in human Caco-2 cells from basal to apical after 180 mins by LC-MS/MS analysis; format: ADME, cell-based
[25] = Apparent permeability of compound in human Caco-2 cells from basal to apical after 120 mins by LC-MS/MS analysis; format: ADME, cell-based
[26] = Apparent permeability of compound in human Caco-2 cells from apical to basal after 30 mins by LC-MS/MS analysis; format: ADME, cell-based
Caco-2 [27] = test: Cytotoxicity against human Caco-2 cells assessed as reduction in cell viability at 30 uM after 48 hrs by MTT assay; format: toxicity, cell-based; conditions: caco-2, 48 h
[28] = Cmax in male Sprague-Dawley rat at 20 mg/kg,po pretreated with 3-4-chloropheny1-N-4-2-morpholinoethylpheny1-4-oxo-3,4-dihydrophthalazine-1-carboxamide at 10 mg/kg measured by LC/MS analysis; format: ADME, organism-based; set-up: dose 20 mg/kg, route po; conditions: in vivo

## O=C(Nc1ccc(CCN2CCOCC2)cc1)c1nn(-c2ccc(Cl)cc2)c(=O)c2ccccc12
[1]
  EC50: 0.0982 µM
MDCK
  IC50: 87.7 µM
Caco-2 [2]
  Activity: < 20%
K562/A02
  IC50: 43.3 µM
[3]
  IC50: 81.2 µM
[4]
  inhibition (INH): Active
[5]
  IC50: 7232 µM
K562
  IC50: 72.8 µM
[6]
  inhibition (INH): Active
MDCK-II-BCRP
  inhibition: Active

## CS(=O)(=O)CCNCc1ccc(-c2ccc3ncnc(Nc4ccc(OCc5cccc(F)c5)c(Cl)c4)c3c2)o1 [LAPATINIB]
[7]
  EC50: 3.2 µM
[8]
  EC50: > 2.79 µM

## O=C(NCCc1cccc(Cl)c1)c1nn(-c2ccc(Cl)cc2)c(=O)c2ccccc12
A549
  IC50: > 100 µM
MDCK
  IC50: > 100 µM
K562/A02
  IC50: > 100 µM
[3]
  IC50: 51.4 µM
K562
  IC50: > 100 µM

## O=C(NCCN1CCOCC1)c1nn(-c2ccc(Cl)cc2)c(=O)c2ccccc12
A549
  IC50: > 100 µM
MDCK
  IC50: > 100 µM
K562/A02
  IC50: > 100 µM
[3]
  IC50: > 100 µM
K562
  IC50: > 100 µM

## COc1cc2c(cc1OC)CN(CCc1ccc(NC(=O)c3cc(OC)c(OC)cc3NC(=O)c3cnc4ccccc4c3)cc1)CC2
MDCK
  IC50: > 100 µM
[3]
  IC50: > 100 µM

## O=C(NCCc1cccc(F)c1)c1nn(-c2ccc(Cl)cc2)c(=O)c2ccccc12
A549
  IC50: 69.1 µM
MDCK
  IC50: > 100 µM
K562/A02
  IC50: > 100 µM
[3]
  IC50: > 100 µM
K562
  IC50: > 100 µM

## COc1ccc2c3c([nH]c2c1)[C@H](CC(C)C)N1C(=O)[C@H](CCC(=O)OC(C)(C)C)NC(=O)[C@@H]1C3
MDCK
  IC50: 93.3 µM
[3]
  IC50: > 100 µM

## O=C(NCCCN1CCOCC1)c1nn(-c2ccc(Cl)cc2)c(=O)c2ccccc12
A549
  IC50: 73.4 µM
MDCK
  IC50: > 100 µM
K562/A02
  IC50: > 100 µM
[3]
  IC50: > 100 µM
K562
  IC50: > 100 µM

## O=C(Nc1ccc(N2CCOCC2)cc1)c1nn(-c2ccc(Cl)cc2)c(=O)c2ccccc12
A549
  IC50: > 100 µM
MDCK
  IC50: > 100 µM
K562/A02
  IC50: > 100 µM
[3]
  IC50: > 100 µM
K562
  IC50: > 100 µM

## O=C(Nc1ccc(CCN2CCc3ccccc3C2)cc1)c1nn(-c2ccc(Cl)cc2)c(=O)c2ccccc12
A549
  IC50: > 100 µM
MDCK
  IC50: > 100 µM
K562/A02
  IC50: > 100 µM
[3]
  IC50: > 100 µM
K562
  IC50: > 100 µM

## COc1ccc(CCN(C)CCCC(C#N)(c2ccc(OC)c(OC)c2)C(C)C)cc1OC (stereo not given)
K562/A02
  IC50: 39.9 µM
[4]
  inhibition (INH): Active

## COc1ccc(CCNC(=O)c2nn(-c3ccc(Cl)cc3)c(=O)c3ccccc23)cc1OC
A549
  IC50: > 100 µM
MDCK
  IC50: > 100 µM
K562/A02
  IC50: > 100 µM
[3]
  IC50: > 100 µM
K562
  IC50: > 100 µM

## COc1cc2ncnc(Nc3ccc(F)c(Cl)c3)c2cc1OCCCN1CCOCC1 [GEFITINIB]
[4]
  inhibition (INH): Active
[8]
  EC50: > 1 µM

## O=C(NCCc1ccccc1)c1nn(-c2ccc(Cl)cc2)c(=O)c2ccccc12
A549
  IC50: 43.5 µM
MDCK
  IC50: > 100 µM
K562/A02
  IC50: > 100 µM
[3]
  IC50: 97.3 µM
K562
  IC50: > 100 µM

## COc1cccc2c1C(=O)c1c(O)c3c(c(O)c1C2=O)C[C@@](O)(C(=O)CO)C[C@@H]3O[C@H]1C[C@H](N)[C@H](O)[C@H](C)O1 [DOXORUBICIN HYDROCHLORIDE]
K562/A02
  IC50: 78.3 µM
K562
  IC50: 0.92 µM

## CC(=O)O[C@H]1C(=O)[C@@]2(C)[C@H]([C@H](OC(=O)c3ccccc3)[C@]3(O)C[C@H](OC(=O)[C@H](O)[C@@H](NC(=O)c4ccccc4)c4ccccc4)C(C)=C1C3(C)C)[C@]1(OC(C)=O)CO[C@@H]1C[C@@H]2O [PACLITAXEL]
[9]
  Papp B→A at 1.5 h: 5.85 ×10⁻⁶ cm/s
[10]
  bioavailability: 45.1%
[11]
  F: 100%
[12]
  Tmax: 2 h
[13]
  Papp B→A at 1 h: 2.5 ×10⁻⁶ cm/s
[14]
  Vd/F: 16 L
[15]
  Papp A→B at 2 h: 2.42 ×10⁻⁶ cm/s
[16]
  AUC(0-t): 3130 ng·h/mL
In vivo
  half-life: 1.68 h
[17]
  Papp A→B at 1.5 h: 1.98 ×10⁻⁶ cm/s
[18]
  Tmax: 2.51 h
[19]
  Papp B→A at 0.5 h: 1.29 ×10⁻⁶ cm/s
[20]
  Cmax: 112 ng/mL
[21]
  Papp A→B at 1 h: 1.02 ×10⁻⁶ cm/s
[22]
  Papp A→B at 3 h: 2.69 ×10⁻⁶ cm/s
[23]
  CL/F: 103 mL/min
[24]
  Papp B→A at 3 h: 19.4 ×10⁻⁶ cm/s
[25]
  Papp B→A at 2 h: 11.1 ×10⁻⁶ cm/s
[26]
  Papp A→B at 0.5 h: 0.09 ×10⁻⁶ cm/s
Caco-2 [27]
  Activity: < 20%
[28]
  Cmax: 652 ng/mL

## C#Cc1cccc(Nc2ncnc3cc(OCCOC)c(OCCOC)cc23)c1 [ERLOTINIB]
[7]
  EC50: 0.17 µM
[8]
  EC50: > 4.93 µM
